Measured values taken from US20110275094A1, “PHOSPHORYLATED FMS-RELATED TYROSINE KINASE 3 BIOMARKER ASSAY” (priority 2008, published 2011).
Where two headings read alike, the source gives them in different places.

Assays:
[1] = test system: peripheral blast / bone marrow blast
Procedure: The samples were then flash frozen in −70° C. A small number of patient samples were frozen unlysed and lysed afterwards.

[2] = AC220 phase I study, tolerability; assay type: in vivo; settings: QD, patients of phase I study
Text: Thus, the pFLT3 ELISA of the invention successfully yielded useful pharmacodynamic data that not only guided the decision to change the dosing schedule from intermittent to continuous, but also guided the selection of the starting dose level for the 28-day continuous schedule, when information on dose limiting toxicity or maximum tolerated dose was still unavailable.

In the case of CC(C)(C)c1cc(NC(=O)Nc2ccc(-c3cn4c(n3)sc3cc(OCCN5CCOCC5)ccc34)cc2)no1 [AC220], the “bone marrow blast percentage” value ([1]; Patient A) is reported as “appeared to reduce bone marrow blast percentage”, the protocol defined response ([1]; Patient D) is reported as “CRp/PR” and the protocol defined response ([1]; Patient E) is reported as “CRi”. For the same compound, the maximum tolerated dose [2] was > 300 mg per day.
